Results taken from patent US20220242872A1, “E3 LIGASE BINDERS AND USES THEREOF” (DANA-FARBER CANCER INSTITUTE, INC., priority 2019, published 2022).
“Also recorded” adds a separate entry of the source.

Experiments:
IKZF3 = target: T1, IKZF3 (Homo sapiens, UniProt Q96SW2+Q9UKT9); test: 24 hour IKZF Western Blot in Jurkat cells (FIG. 5), IKZF3; format: cell-based
T1 construct: endogenous in cells; host or cells: Jurkat
Procedure: (§1) Exemplary close analogues had low activity against CRBN (FIG. 4). For the IKZF Western Blot, the cell is Jurkat, the exemplary compounds for treatment are JADA3, 32, 53, and lenalidomide, and the time point is 24 hours (FIG. 5).
(§2) Conditions for Western blot:
(§3) Jurkat cells were seeded in 6 well plates, followed by the compound treatment for 24 hours. Primary and secondary antibodies used included anti-IKZF1 at 1:1000 dilution, anti-IKZF2 at 1:1,000 dilution, anti-IKZF3 at 1:1000 dilution, anti-ACTIN at 1:5,000 dilution, IRDye®680 Donkey anti-mouse at 1:5,000 dilution (926-68072, LiCor®, Lot: C61116-05) and IRDye®800 Goat anti-rabbit at 1:5,000 dilution (926-32211, LiCor®, Lot: C70301-05).

IKZF1 [1] = target: T2, IKZF1 (Homo sapiens, UniProt Q13422+Q96SW2); test: Degradation of IKZF upon 24 hours treatment (FIG. 3); format: cell-based; parameters: endogenous in cells; conditions: 293T WT cells (legend also says Jurkat WT)
T2 sequence (Q13422 whole entry): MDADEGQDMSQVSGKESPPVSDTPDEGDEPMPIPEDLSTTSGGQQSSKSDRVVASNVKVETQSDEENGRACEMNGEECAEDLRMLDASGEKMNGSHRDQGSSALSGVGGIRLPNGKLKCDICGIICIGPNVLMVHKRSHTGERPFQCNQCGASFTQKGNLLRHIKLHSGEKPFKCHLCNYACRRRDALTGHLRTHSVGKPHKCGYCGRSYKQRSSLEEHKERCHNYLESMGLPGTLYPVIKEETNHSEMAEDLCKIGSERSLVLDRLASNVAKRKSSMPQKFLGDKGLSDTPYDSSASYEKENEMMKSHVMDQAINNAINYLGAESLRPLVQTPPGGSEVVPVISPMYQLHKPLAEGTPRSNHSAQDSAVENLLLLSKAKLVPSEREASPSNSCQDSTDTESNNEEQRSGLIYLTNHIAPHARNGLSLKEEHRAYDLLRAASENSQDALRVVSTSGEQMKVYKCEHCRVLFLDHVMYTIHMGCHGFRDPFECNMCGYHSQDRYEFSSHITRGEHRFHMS
T2 sequence (Q96SW2 whole entry): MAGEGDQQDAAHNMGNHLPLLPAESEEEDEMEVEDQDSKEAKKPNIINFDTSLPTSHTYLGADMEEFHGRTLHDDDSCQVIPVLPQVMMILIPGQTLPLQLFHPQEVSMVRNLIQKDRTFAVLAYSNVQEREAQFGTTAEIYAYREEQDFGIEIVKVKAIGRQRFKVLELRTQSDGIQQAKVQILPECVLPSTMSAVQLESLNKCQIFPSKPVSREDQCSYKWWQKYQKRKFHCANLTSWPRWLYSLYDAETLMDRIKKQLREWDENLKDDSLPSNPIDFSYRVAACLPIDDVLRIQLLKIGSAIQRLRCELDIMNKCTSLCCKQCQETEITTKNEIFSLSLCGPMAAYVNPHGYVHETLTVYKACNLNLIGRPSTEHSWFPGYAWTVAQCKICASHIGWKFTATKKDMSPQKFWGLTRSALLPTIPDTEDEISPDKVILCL
T2 sequence (Q16531 whole entry partner): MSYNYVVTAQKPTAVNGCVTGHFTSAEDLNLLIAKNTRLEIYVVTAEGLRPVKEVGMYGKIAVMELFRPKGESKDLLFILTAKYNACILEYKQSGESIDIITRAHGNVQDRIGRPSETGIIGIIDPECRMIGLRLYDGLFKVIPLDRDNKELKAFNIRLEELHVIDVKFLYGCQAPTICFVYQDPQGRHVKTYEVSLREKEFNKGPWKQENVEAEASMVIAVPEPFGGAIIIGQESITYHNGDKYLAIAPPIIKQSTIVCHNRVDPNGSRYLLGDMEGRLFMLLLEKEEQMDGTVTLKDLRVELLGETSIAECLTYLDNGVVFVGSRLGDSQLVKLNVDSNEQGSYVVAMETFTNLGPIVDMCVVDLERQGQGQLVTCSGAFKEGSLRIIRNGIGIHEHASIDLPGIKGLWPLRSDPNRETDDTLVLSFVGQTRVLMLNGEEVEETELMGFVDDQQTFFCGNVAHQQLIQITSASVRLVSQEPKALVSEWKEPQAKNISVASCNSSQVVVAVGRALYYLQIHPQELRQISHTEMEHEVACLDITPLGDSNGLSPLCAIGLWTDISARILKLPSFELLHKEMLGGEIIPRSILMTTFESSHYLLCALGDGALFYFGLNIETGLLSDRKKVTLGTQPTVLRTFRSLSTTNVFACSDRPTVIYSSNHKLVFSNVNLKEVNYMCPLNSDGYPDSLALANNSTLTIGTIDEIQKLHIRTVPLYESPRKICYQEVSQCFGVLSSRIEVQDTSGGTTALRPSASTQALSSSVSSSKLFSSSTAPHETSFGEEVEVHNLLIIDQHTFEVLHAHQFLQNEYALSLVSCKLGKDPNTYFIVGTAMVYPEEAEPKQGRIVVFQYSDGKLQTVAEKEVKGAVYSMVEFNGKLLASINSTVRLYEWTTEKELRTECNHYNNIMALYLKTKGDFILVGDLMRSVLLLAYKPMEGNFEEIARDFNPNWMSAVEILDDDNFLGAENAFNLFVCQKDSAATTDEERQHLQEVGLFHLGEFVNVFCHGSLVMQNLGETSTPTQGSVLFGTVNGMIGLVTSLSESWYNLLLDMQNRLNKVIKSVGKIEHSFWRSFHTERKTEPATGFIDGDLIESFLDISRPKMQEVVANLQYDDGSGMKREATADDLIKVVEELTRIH
Procedure: (§4) The results of an assay for CRBN binding (and degradation of IKZF or actin) upon treatment for 24 hours with exemplary compounds Qi-01-68, JADA53, and positive control lenalidomide (at the indicated concentrations in μM) in 293T WT cells (homo sapiens kidney cell line; wild type) are shown in FIG. 3.

CRBN [2] = target: T3, CRBN (Homo sapiens, UniProt Q96SW2); test: CRBN Fluorescence Polarization (FP) displacement assay; format: binding; parameters: His6 (N); conditions: displacement of Atto565-lenalidomide from DDB1ΔB-CRBN; FIGS. 1, 4, 6A, 7
T3 sequence (Q96SW2 whole entry): as the sequence (Q96SW2 whole entry) above
Procedure: Conditions for CRBN Fluorescence Polarization (FP) displacement assay: Atto565-conjugated lenalidomide (10 nM) was mixed with increasing concentration of purified his6-DDB1AB-his6—CRBN (10 μM final top concentration, 2-fold, 23-point dilution and DMSO control) in 384-well microplates (Corning, 4514) and incubated for 15 minutes (min) at room temperature (rt). The change in fluorescence polarization was monitored using a PHERAstar® FS microplate reader (BMG Labtech) for 20 min in 120 s cycles. The Atto565-lenalidomide bound fraction was calculated and the Kd was obtained from a fit in GraphPad Prism 7. Compounds in Atto565-Lenalidomide displacement assay were dispensed in a 384-well microplate (Corning®, 4514) using D300e Digital Dispenser (HP) normalized to 2% DMSO into 10 nM Atto565-Leanlidomide, 100 nM DDB1ΔB-CRBN, 50 mM Tris pH 7.5, 200 mM NaCl, 0.1% Pluronic® F-68 solution (Sigma), 0.5 mg/ml BSA (Sigma) containing 2% DMSO (4% DMSO final). The change in fluorescence polarization was monitored using a PHERAstar® FS microplate reader (BMG Labtech) for 20 min in 200 s cycles. IC50 values estimated using variable slope equation in GraphPad Prism 7.

CRBN [3] = target: T3, CRBN; test: Assay for CRBN binding in the cell, 24 hours treatment (FIG. 3); format: cell-based; parameters: endogenous in cells; conditions: 293T WT cells (legend also says Jurkat WT)
Procedure: as §4

IKZF1 [4] = target: T2, IKZF1; test: 24 hour IKZF Western Blot in Jurkat cells (FIG. 5), IKZF1; format: cell-based; parameters: endogenous in cells; host or cells: Jurkat
Procedure: as §1, §2, §3

T1 sequence (Q9UKT9 whole entry): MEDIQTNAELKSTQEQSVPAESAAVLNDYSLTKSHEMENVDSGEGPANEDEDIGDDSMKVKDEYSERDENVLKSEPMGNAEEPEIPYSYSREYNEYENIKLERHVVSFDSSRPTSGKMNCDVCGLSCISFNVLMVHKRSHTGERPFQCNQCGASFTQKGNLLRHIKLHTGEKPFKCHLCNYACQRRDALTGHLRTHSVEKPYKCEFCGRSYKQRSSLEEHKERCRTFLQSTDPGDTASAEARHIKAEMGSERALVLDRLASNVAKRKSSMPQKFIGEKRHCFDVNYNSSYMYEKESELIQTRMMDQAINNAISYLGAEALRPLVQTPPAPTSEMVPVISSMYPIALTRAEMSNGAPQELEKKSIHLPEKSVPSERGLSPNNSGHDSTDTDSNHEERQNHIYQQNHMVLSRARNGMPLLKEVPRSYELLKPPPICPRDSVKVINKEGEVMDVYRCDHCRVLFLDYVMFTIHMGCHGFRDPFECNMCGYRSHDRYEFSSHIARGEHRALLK
T1 sequence (Q96SW2 whole entry): as the sequence (Q96SW2 whole entry) above
T1 sequence (Q16531 whole entry partner): as the sequence (Q16531 whole entry partner) above

Compound: Cc1[nH]c2c(-c3cnn(-c4cc(OCCN)ccn4)c3)cnn2c(=O)c1C(C)C [JADA53]
- degradation of IKZF3 in cells (Western Blot) (IKZF3): degraded
- degradation of IKZF / IKZF1 in cell (IKZF1 [1]): can degrade IKZF; also recorded: degraded IKZF
- CRBN binding activity (FP displacement) (CRBN [2]): binds CRBN
- binding of target CRBN in the cell (CRBN [3]): good binding
- degradation of IKZF1 in cells (Western Blot) (IKZF1 [4]): degraded
